# Test results from US20110117081A1, “FUNCTIONALIZED PYRROLIDINES AND USE THEREOF AS IAP INHIBITORS” (priority 2008, published 2011).
# Columns and labels:
# [1] = test system: Colorectal carcinoma HCT116 cells; test: HCT116 + ETR1 cell viability assay (MTT); assay type: cell-based; conditions: with ETR1 (40 ng/ml), 72 hrs
# Experimental: Colorectal carcinoma HCT116 cells (ATCC# CCL-247) were cultured as monolayers in 96 well plates at a density of 2000 cells per well in 100 ul of McCoy's 5a medium (HyClone) supplemented with 2.2 g/L sodium bicarbonate (Gibco), 10% FBS (HyClone) and 1% penecillin/streptomycin (HyClone) for 24 hours. Triplicate wells of cells were treated for 72 hrs at 37° C. (5% CO2) with 50 ul of HGS agonistic Trail receptor antibody, ETR1 (40 ng/ml) in combination with 50 ul of diluted compound (0.01 to 10000 nM). Metabolic viability of remaining cells was assessed by MTT assay.
# (§1) The percentage viability of compound-treated cells was expressed as a fraction of the absorbance/luminescence signal obtained from non-treated cells. EC50 values (corresponding to 50% cell survival in the presence of compound as compared to untreated controls) were calculated from MTT survival curves (HCT116 and SKOV3) using BioAssay software (CambridgeSoft) and from Cell Titer-Glo survival curves (synovioycte and Jurkat cells) using GraphPad Prism (Graph Pad Software Inc.). In the below chart, EC50 values are summarized as follows: a=EC50 of less than 10 nM; b=EC50 of 10-100 nM; and c=EC50 of greater than 100 nM.
# [2] = test system: Ovarian adenocarcinoma SKOV3 cells; test: SKOV3 cell viability assay (MTT); assay type: cell-based; conditions: Homo sapiens, SK-OV-3, 72 hours
# Experimental: Ovarian adenocarcinoma SKOV3 cells (ATCC# HTB-77) were cultured as monolayers in McCoy's 5a medium (HyClone) supplemented with 2.2 g/L sodium bicarbonate (Gibco), 10% FBS (HyClone) and 1% penicillin/streptomycin (HyClone). Cells were seeded in tissue culture-treated 96 well plates at 5000 cells/well in 150 ul of media. After 24 hours, triplicate wells of cells were treated with various concentrations of compound (0.01 to 10000 nM) diluted in 50 ul of culture media. Cells were incubated at 37° C. (5% CO2) in the presence of compound for 72 hours. Metabolic viability of remaining cells was assessed by MTT (thiazolyl blue tetrazolium bromide, Sigma) assay. 20 ul of MTT reagent (10 mg/ml) was added per well and plates were incubated for 4 hours at 37° C. (5% CO2). The supernatant was then removed from the plate. The converted MTT product was solubilized with 100 uL of isopropanol and the absorbance was read at 570 nm using a Tecan spectrophotometer.
# as §1
# [3] = test system: Rheumatoid arthritis human fibroblast-like synoviocytes (HFLS-RA); test: Human synoviocytes + Fas antibody cell viability assay (Cell Titer-Glo); assay type: cell-based; conditions: with anti-human CD95 (Fas) antibody (300 ng/ml), 72 hrs, read-out: EC50 synoviocyctes + FAS
# Experimental: Rheumatoid arthritis human fibroblast-like synoviocytes (HFLS-RA, Cell Applications Inc.) were seeded in 96-well plates at 3000 cells per well in 100 ul of complete synoviocyte growth medium (Cell Applications Inc.) one day prior to treatment. Triplicate wells of cells were treated by the addition of 50 ul of diluted compound (0.01 to 100 nM) in combination with 50 ul of anti-human CD95 (Fas) antibody (300 ng/ml; clone CH-11, Beckman Coulter/Immunotech) and incubated at 37° C. (5% CO2) for 72 hrs. Cell viability was measured by Cell Titer-Glo Luminescent Assay (Promega). Briefly, 100 ul of media was removed from wells and an equal volume of Cell Titer-Glo Reagent was added to the cells. The plates were mixed for 2 minutes on an orbital shaker and after a 10-minute incubation period at room temperature, the emitted luminescence was detected using a Tecan Infinite F200 spectrophotometer.
# as §1
# HCT-116 xenograft = test: Tumor suppressive effect in combination with ETR1, HCT-116 xenograft model; assay type: in vivo; conditions: 1 mg/kg IV, 5 on/2off; with Mapatumamab 10 mg/kg IP twice weekly; after 3 weeks of treatment; CD-1 nude mice
# Experimental: Tumor Suppressive Effect of Compound in Combination with ETR1 using an HCT-116 Xenograft Model
# (§2) Female, CD-1, nude mice received 1.5×10^6 HCT-116 cells (in 100 uL of serum-free media) subcutaneously at the right flank. When average tumor size reached ˜150 mm^3 groups were formed using a balanced design based on tumor size, and treatment commenced. Tumor bearing mice were treated with either vehicle (5% D5W; 5 mL/kg, IV) or compound (1 mg/kg, IV) using a 5 on/2off treatment schedule. Mapatumamab (10 mg/kg, IP) was given twice weekly for the duration of the experiment, commencing one day after IAP inhibitory compounds.
# H460 xenograft = test: Tumor suppressive effect in combination with Taxotere, H460 xenograft model; assay type: in vivo; conditions: 1 mg/kg IV, 5 on/2off; with Taxotere 30 mg/kg IP; after 3 weeks of treatment; CD-1 nude mice
# Experimental: Tumor Suppressive Effect of Compound in Combination with Taxotere using an H460 Xenograft Model
# as §2, with “1×10^6 H460” for “1.5×10^6 HCT-116”, “˜100” for “˜150”, “Taxotere (30” for “Mapatumamab (10”, “twice, one week apart” for “twice weekly for the duration of the experiment,”
EC50 [1],SMILES,EC50 [2],EC50 [3],tumor growth suppression relative to vehicle treated controls (HCT-116 xenograft),tumor growth suppression relative to vehicle treated controls (H460 xenograft)
10 to 100 nM,CN[C@@H](C)C(=O)N[C@H](C(=O)N1C[C@@H](NC(=O)c2ccc(C(=O)N[C@H]3C[C@@H](C(=O)N4CC[C@@H](c5ccccc5)C4)N(C(=O)[C@@H](NC(=O)[C@H](C)NC)C4CCCCC4)C3)cc2)C[C@H]1C(=O)N1CC[C@@H](c2ccccc2)C1)C1CCCCC1 [Compound 41],,10 to 100 nM,,
< 10 nM,CN[C@@H](C)C(=O)N[C@H](C(=O)N1C[C@@H](NC(=O)C2CCC(C(=O)N[C@H]3C[C@@H](C(=O)NC(c4ccccc4)c4ccccc4)N(C(=O)[C@@H](NC(=O)[C@H](C)NC)C4CCCCC4)C3)CC2)C[C@H]1C(=O)NC(c1ccccc1)c1ccccc1)C1CCCCC1 (stereo partly drawn) [Compound 7],< 10 nM,< 10 nM,,
< 10 nM,CC[C@H](NC)C(=O)N[C@H](C(=O)N1C[C@@H](NC(=O)c2ccc(C(=O)N[C@H]3C[C@@H](C(=O)N[C@@H]4CCCc5ccccc54)N(C(=O)[C@@H](NC(=O)[C@H](CC)NC)C4CCCCC4)C3)cc2)C[C@H]1C(=O)N[C@@H]1CCCc2ccccc21)C1CCCCC1 [Compound 51],,< 10 nM,,
< 10 nM,CN[C@@H](C)C(=O)N[C@H](C(=O)N1C[C@@H](NC(=O)c2ccc(C(=O)N[C@H]3C[C@@H](C(=O)N[C@H](C)c4ccccc4)N(C(=O)[C@@H](NC(=O)[C@H](C)NC)C4CCCCC4)C3)cc2)C[C@H]1C(=O)N[C@H](C)c1ccccc1)C1CCCCC1 [Compound 13],< 10 nM,,,
< 10 nM,CN[C@@H](C)C(=O)N[C@H](C(=O)N1C[C@@H](NC(=O)c2ccc(C(=O)N[C@H]3C[C@@H](C(=O)N[C@@H]4CCCc5ccccc54)N(C(=O)[C@@H](NC(=O)[C@H](C)NC)C4CCCCC4)C3)cc2)C[C@H]1C(=O)N[C@@H]1CCCc2ccccc21)C1CCCCC1 [Compound 1],< 10 nM,< 10 nM,59%,54%
< 10 nM,CN[C@@H](C)C(=O)N[C@H](C(=O)N1C[C@@H](NC(=O)c2ccc3cc(C(=O)N[C@H]4C[C@@H](C(=O)NC5c6ccccc6-c6ccccc65)N(C(=O)[C@@H](NC(=O)[C@H](C)NC)C5CCCCC5)C4)ccc3c2)C[C@H]1C(=O)NC1c2ccccc2-c2ccccc21)C1CCCCC1 [Compound 20],< 10 nM,,,

SMILES,EC50 [1],EC50 [2],EC50 [3],tumor growth suppression relative to vehicle treated controls (HCT-116 xenograft),tumor growth suppression relative to vehicle treated controls (H460 xenograft)
CN[C@@H](C)C(=O)N[C@H](C(=O)N1C[C@@H](NC(=O)C2CCC(C(=O)N[C@H]3C[C@@H](C(=O)N[C@@H]4CCc5ccccc54)N(C(=O)[C@@H](NC(=O)[C@H](C)NC)C4CCCCC4)C3)CC2)C[C@H]1C(=O)N[C@@H]1CCc2ccccc21)C1CCCCC1 (stereo partly drawn) [Compound 3],< 10 nM,< 10 nM,< 10 nM,,
CN[C@@H](C)C(=O)N[C@H](C(=O)N1C[C@@H](NC(=O)C2CCC(C(=O)N[C@H]3C[C@@H](C(=O)N[C@H](COCc4ccccc4)c4ccccc4)N(C(=O)[C@@H](NC(=O)[C@H](C)NC)C4CCCCC4)C3)CC2)C[C@H]1C(=O)N[C@H](COCc1ccccc1)c1ccccc1)C1CCCCC1 (stereo partly drawn) [Compound 17],< 10 nM,10 to 100 nM,,,
CN[C@@H](C)C(=O)N[C@H](C(=O)N1C[C@@H](NC(=O)c2ccc3cc(C(=O)N[C@H]4C[C@@H](C(=O)N[C@@H]5CCc6ccccc65)N(C(=O)[C@@H](NC(=O)[C@H](C)NC)C5CCCCC5)C4)ccc3c2)C[C@H]1C(=O)N[C@@H]1CCc2ccccc21)C1CCCCC1 [Compound 22],< 10 nM,< 10 nM,,,
CN[C@@H](C)C(=O)N[C@H](C(=O)N1C[C@@H](NC(=O)c2ccc(-c3ccc(C(=O)N[C@H]4C[C@@H](C(=O)NC(c5ccccc5)c5ccccc5)N(C(=O)[C@@H](NC(=O)[C@H](C)NC)C5CCCCC5)C4)cc3)cc2)C[C@H]1C(=O)NC(c1ccccc1)c1ccccc1)C1CCCCC1 [Compound 11],< 10 nM,10 to 100 nM,,,
CN[C@@H](C)C(=O)N[C@H](C(=O)N1C[C@@H](NC(=O)c2ccc(C(=O)N[C@H]3C[C@@H](C(=O)N4CCC[C@@H]4c4ccccc4)N(C(=O)[C@@H](NC(=O)[C@H](C)NC)C4CCCCC4)C3)cc2)C[C@H]1C(=O)N1CCC[C@@H]1c1ccccc1)C1CCCCC1 [Compound 30],> 100 nM,> 100 nM,,,
